Assay: Thermogravimetric analysis weight loss
Assay type: physicochemical
Conditions: 250° C., pure state, heating rate 10° C./min
Method: An anti-biotic agent was selected consisting of ciprofloxacin betaine crystalline powder (C.A.S. Registry No. 85721-33-1). Ciprofloxacin is a broad spectrum antimicrobial agent having less than 1 percent weight loss at a temperature of 250° C. when measured in a pure state by thermogravimetric analysis at a heating rate of 10° C./min. The ciprofloxacin melted over a temperature range of 252° C. to 271° C.

weight loss by thermogravimetric analysis: less than 1%
SMILES: O=C(O)c1cn(C2CC2)c2cc(N3CCNCC3)c(F)cc2c1=O [Ciprofloxacin, ciprofloxacin betaine]
